Laboratory results published in ChEMBL document CHEMBL4364262 (J Med Chem, 2019).
Where a SMILES comes first, the peptide text is derived from it. Bridges are numbered along the chain shown (N, C = ends). [ ]: non-standard residue; d: D form. Nle(6-COOH) = N[C@@H](CCCCC(=O)O)C(=O)O; Nle = CCCC[C@H](N)C(=O)O

What was measured:
Type in all cases: cell-based
[1] = Antagonist activity at rat alpha6alpha3beta4 nAChR expressed in Xenopus laevis oocytes assessed as inhibition of Ach-induced response at -70 mV holding potential by two electrode voltage-clamp assay
[2] = target: nicotinic acetylcholine receptor alpha6/alpha3/beta2/beta3 (Rattus norvegicus, UniProt P04757+P12390+P12391+P43143); experiment: Antagonist activity at rat alpha6alpha3beta2beta3 nAChR expressed in Xenopus laevis oocytes assessed as Ach-induced current amplitude at 10 nM at -70 mV holding potential by two electrode voltage-clamp assay relative to control
[3] = target: T1, Neuronal acetylcholine receptor; alpha3/beta2 (Rattus norvegicus) (UniProt P04757+P12390); experiment: Antagonist activity at rat alpha3beta2 nACHR expressed in Xenopus laevis oocytes assessed as Ach-induced current amplitude at 100 nM at -70 mV holding potential by two electrode voltage-clamp assay relative to control; set-up: scale not given: the % may be the effect or the level left
[4] = target: T1, Neuronal acetylcholine receptor; alpha3/beta2 (Rattus norvegicus); experiment: Antagonist activity at rat alpha3beta2 nACHR expressed in Xenopus laevis oocytes assessed as Ach-induced current amplitude at 10 nM at -70 mV holding potential by two electrode voltage-clamp assay relative to control

Chain of nicotinic acetylcholine receptor alpha6/alpha3/beta2/beta3 (P04757 whole entry): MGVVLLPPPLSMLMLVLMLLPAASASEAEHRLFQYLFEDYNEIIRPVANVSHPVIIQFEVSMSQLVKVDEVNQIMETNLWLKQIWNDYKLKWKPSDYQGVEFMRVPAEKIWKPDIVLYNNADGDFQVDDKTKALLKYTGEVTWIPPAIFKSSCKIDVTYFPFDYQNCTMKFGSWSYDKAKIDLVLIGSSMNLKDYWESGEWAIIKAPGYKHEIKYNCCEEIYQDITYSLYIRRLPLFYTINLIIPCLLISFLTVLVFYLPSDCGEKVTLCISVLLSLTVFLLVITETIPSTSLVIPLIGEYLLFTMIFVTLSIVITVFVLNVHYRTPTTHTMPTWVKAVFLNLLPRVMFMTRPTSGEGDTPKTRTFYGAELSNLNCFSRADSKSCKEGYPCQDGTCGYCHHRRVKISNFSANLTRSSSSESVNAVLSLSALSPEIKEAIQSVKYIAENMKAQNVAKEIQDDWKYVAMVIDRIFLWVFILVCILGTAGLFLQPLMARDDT
Chain of nicotinic acetylcholine receptor alpha6/alpha3/beta2/beta3 (P12390 whole entry): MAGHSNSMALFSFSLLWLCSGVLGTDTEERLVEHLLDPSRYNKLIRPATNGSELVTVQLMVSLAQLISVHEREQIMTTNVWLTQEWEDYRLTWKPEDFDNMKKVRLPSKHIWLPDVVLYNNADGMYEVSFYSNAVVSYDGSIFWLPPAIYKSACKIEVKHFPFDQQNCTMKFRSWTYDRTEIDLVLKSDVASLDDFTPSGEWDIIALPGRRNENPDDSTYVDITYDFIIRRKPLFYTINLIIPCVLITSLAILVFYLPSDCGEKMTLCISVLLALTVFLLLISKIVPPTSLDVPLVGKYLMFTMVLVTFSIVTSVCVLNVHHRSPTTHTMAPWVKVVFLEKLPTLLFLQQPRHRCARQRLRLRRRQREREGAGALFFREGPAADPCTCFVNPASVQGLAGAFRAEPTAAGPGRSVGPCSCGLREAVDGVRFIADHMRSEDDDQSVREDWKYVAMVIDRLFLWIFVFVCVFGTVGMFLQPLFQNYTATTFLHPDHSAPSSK
Chain of nicotinic acetylcholine receptor alpha6/alpha3/beta2/beta3 (P12391 whole entry): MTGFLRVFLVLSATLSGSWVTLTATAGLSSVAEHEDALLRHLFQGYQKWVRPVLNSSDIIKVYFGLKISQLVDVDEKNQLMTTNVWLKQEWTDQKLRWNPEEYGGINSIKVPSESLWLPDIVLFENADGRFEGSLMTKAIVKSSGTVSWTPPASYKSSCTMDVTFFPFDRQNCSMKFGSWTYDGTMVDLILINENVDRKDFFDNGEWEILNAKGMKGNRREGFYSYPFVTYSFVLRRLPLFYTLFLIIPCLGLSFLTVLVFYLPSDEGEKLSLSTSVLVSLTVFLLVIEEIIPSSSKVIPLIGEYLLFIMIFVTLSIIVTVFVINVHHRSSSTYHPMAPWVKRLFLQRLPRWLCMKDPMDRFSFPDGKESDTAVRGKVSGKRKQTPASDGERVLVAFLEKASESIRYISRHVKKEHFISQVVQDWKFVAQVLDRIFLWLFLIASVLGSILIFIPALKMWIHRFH
Chain of nicotinic acetylcholine receptor alpha6/alpha3/beta2/beta3 (P43143 whole entry): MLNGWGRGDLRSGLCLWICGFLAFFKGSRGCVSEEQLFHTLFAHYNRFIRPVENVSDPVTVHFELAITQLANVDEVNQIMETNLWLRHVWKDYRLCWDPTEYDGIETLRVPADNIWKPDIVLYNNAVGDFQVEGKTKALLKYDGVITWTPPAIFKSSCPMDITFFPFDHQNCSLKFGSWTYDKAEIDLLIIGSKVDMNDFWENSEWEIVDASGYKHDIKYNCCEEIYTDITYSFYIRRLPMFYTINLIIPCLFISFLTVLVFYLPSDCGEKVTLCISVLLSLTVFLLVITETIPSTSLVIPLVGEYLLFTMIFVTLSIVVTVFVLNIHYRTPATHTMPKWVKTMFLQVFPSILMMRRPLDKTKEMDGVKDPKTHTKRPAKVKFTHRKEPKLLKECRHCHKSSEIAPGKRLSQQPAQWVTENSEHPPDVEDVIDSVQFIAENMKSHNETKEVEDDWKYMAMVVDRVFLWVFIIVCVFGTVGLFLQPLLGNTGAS

SMILES | IC50 [1] | inhibition at 0.01 µM [2] | Activity [3] | inhibition [4]
CC[C@H](C)[C@@H]1NC(=O)[C@H](CCC(=O)O)NC(=O)[C@@H]2CCCN2C(=O)[C@H](Cc2cnc[nH]2)NC(=O)[C@H](CCCCC(=O)O)NC(=O)[C@H]([C@@H](C)CC)NC(=O)[C@H](Cc2cnc[nH]2)NC(=O)[C@@H]2CSSC[C@H](NC(=O)CN)C(=O)N[C@@H](CSSC[C@@H](C(N)=O)NC1=O)C(=O)N[C@@H](CO)C(=O)N[C@@H](Cc1cnc[nH]1)C(=O)N1CCC[C@H]1C(=O)N[C@@H](C)C(=O)N2 (H-GCCSHPACHI[Nle(6-COOH)]HPEIC-NH2; disulfide 2-8, 3-16) | 77.3 nM | – | – | –
CC[C@H](C)[C@@H]1NC(=O)[C@H](Cc2cnc[nH]2)NC(=O)[C@@H]2CSSC[C@H](NC(=O)CN)C(=O)N[C@@H](CSSC[C@@H](C(N)=O)NC(=O)[C@H](CC(C)C)NC(=O)[C@H](CCC(=O)O)NC(=O)[C@@H]3CCCN3C(=O)[C@H](Cc3cnc[nH]3)NC(=O)[C@H](CCCCC(=O)O)NC1=O)C(=O)N[C@@H](CO)C(=O)N[C@@H](Cc1cnc[nH]1)C(=O)N1CCC[C@H]1C(=O)N[C@@H](C)C(=O)N2 (H-GCCSHPACHI[Nle(6-COOH)]HPELC-NH2; disulfide 2-8, 3-16) | 43.1 nM | – | – | –
CCCC[C@@H]1NC(=O)[C@H](Cc2cnc[nH]2)NC(=O)[C@@H]2CSSC[C@H](NC(=O)CN)C(=O)N[C@@H](CSSC[C@@H](C(N)=O)NC(=O)[C@H]([C@@H](C)CC)NC(=O)[C@H](CCC(=O)O)NC(=O)[C@@H]3CCCN3C(=O)[C@H](Cc3cnc[nH]3)NC(=O)[C@H](CCCCC(=O)O)NC1=O)C(=O)N[C@@H](CO)C(=O)N[C@@H](Cc1cnc[nH]1)C(=O)N1CCC[C@H]1C(=O)N[C@@H](C)C(=O)N2 (H-GCCSHPACH[Nle][Nle(6-COOH)]HPEIC-NH2; disulfide 2-8, 3-16) | 205 nM | 90% | 2% | 8%
CCCC[C@@H]1NC(=O)[C@H](Cc2cnc[nH]2)NC(=O)[C@@H]2CSSC[C@H](NC(=O)CN)C(=O)N[C@@H](CSSC[C@@H](C(N)=O)NC(=O)[C@H](CC(C)C)NC(=O)[C@H](CCC(=O)O)NC(=O)[C@@H]3CCCN3C(=O)[C@H](Cc3cnc[nH]3)NC(=O)[C@H](CCCCC(=O)O)NC1=O)C(=O)N[C@@H](CO)C(=O)N[C@@H](Cc1cnc[nH]1)C(=O)N1CCC[C@H]1C(=O)N[C@@H](C)C(=O)N2 (H-GCCSHPACH[Nle][Nle(6-COOH)]HPELC-NH2; disulfide 2-8, 3-16) | 120 nM | – | – | –
